Values quoted from earlier work as cited in patent US7645462B2, “Acupoint patch” (3T Herbtech, Inc., priority 2002, dated 2010).

How the values were obtained:
[1] = test system: arteria femoralis blood circulation; conditions: intravenous 50 mg/kg, sedated animals

COc1cc(/C=C/C(=O)O)ccc1O.[Na] [ferulic acid sodium]
arteria femoralis blood circulation [1]: increased
external blood vessel resistance [1]: reduced

COc1cc(/C=C/C(=O)O)ccc1O [ferulic acid]
dilation of separated major arteries (separated major arteries): can dilate
